In the experiment the target is Beta-lactamase TEM (Escherichia coli, UniProt P62593). As to the kind of experiment: ChEBML_47839. On the procedure: The compound was tested for its inhibitory activity towards Class A TEM-1 beta-lactamase from Escherichia coli at 0.3 umol

Data on one molecule can be found in BindingDB's records for doi:10.1016/s0960-894x(02)00061-6 (Lek, 2002).

pIC50: −log10 of the molar value.

Beta-lactamase TEM, sequence (P62593 whole entry): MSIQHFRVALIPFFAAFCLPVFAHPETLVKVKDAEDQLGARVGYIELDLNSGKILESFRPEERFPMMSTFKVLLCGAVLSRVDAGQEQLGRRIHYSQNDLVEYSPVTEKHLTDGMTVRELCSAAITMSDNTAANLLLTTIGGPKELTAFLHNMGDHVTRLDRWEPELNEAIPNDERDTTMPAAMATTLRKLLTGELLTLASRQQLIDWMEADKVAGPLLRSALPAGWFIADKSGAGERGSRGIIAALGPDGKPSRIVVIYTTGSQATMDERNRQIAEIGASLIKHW

For orientation: pIC50 means the negative decadic logarithm of the IC50, by convention in mol/L. Lower therefore signals a high IC50. `C/C=C1/C(=O)N2C(C(=O)O)=C3CCCCC3[C@H]12` (stereo partly drawn) [Sodium; (R)-1-eth-(E)-ylidene-2-oxo-1,2,5,6,7,8,8a,8b-octahydro-azeto[2,1-a]isoindole-4-carboxylate] showed a pIC50 of 3.92.
